{
  "source": "paper PMC5154799",
  "about": "(International journal of antimicrobial agents, 2016)",
  "biological_target": "thioredoxin reductase (TrxR, TVAG_474980) (Trichomonas vaginalis, UniProt A0A8U0WQ27)",
  "test": "DTNB reduction assay with NADPH, recombinant TrxR and Trx, absorbance at […] nm",
  "format": "biochemical",
  "note": "pIC50: −log10 of the molar value.",
  "data": [
    {"smiles": "CC(=O)OC[C@H]1O[C@@H]([S-])[C@H](OC(C)=O)[C@@H](OC(C)=O)[C@@H]1OC(C)=O.CCP(CC)CC.[Au+]", "note": "[AF, auranofin]", "values": [
      {"measurement": "pIC50", "value": 7.07}
    ]}
  ]
}
